US11608309B2 (THE RESEARCH FOUNDATION FOR THE STATE UNIVERSITY OF NEW YORK, priority 2009, dated 2023)
Several values for one entry are separate records, joined by “and”; a condition that tells them apart may be missing. Equal values may be shown once.

How the values were obtained:
purified human PMN MMP-8 = purified human PMN MMP-8 (Homo sapiens (Human), UniProt P22894); experiment: MMP-8 inhibition in vitro, synthetic octapeptide substrate, tripeptide products by HPLC; assay type: biochemical
human monocytes = experiment: Cytotoxicity in human monocytes (MTS); assay type: cell-based
Description: Briefly, human peripheral blood monocytes (HMs) were isolated from a leukocyte concentrate by density gradient centrifugation (Lymphoprep) and the isolated HMs cultured (2 h, 37° C.) to remove non-adherant cells. […] After incubation, the proinflammatory cytokines, TNFα, IL-1β, MCP-1 and IL-6 were measured in the conditioned media by ELISA and cytotoxicity was assessed by measuring the absorbance (490 ran) of formazan produced by reduction of MTS. The HMs alone ±0.1-0.5% DMSO produced minimal levels of these pro-inflammatory cytokines. However, addition of 100 ng/ml or 10 μg/ml of LPS both dramatically stimulated cytokine production.

[1] = test system: LPS-challenged human monocytes; experiment: Cytokine and growth factor levels in LPS-challenged human monocytes (Luminex multiplex); assay type: cell-based; conditions: 2 μM
Description: The cytokine levels were measured by Luminex multiplex, a method that allows the simultaneous measurement of different biological markers.

[2] = molecular target: MMP-9 (human leukocyte gelatinase) (Homo sapiens (Human), UniProt P14780); experiment: MMP-9 inhibition in vitro, octapeptide/HPLC; assay type: biochemical
[3] = Hyperglycemia in streptozotocin-diabetic rats, 1-week oral treatment; assay type: in vivo, rat; conditions: 100 mg/kg oral once/day for 7 days
Source text: The purpose of the following was to establish an in vivo model of excessive collagen degradation to be used to test efficacy of the compounds of the subject invention. Male Sprague-Dawley rats (typically 300-400 gms of body weight), specific viral antibody free, were ordered from Charles River. Following general anesthesia via isoflurane anesthetic inhalation, diabetes was induced by an I.V. administration of streptozotocin (STZ) (50* mg/kg body weight) (Sigma Chemical Co., St Louis, Mo., USA) diluted in 0.9% citrated saline (pH 4.5), after 12 hours of fasting. After the streptozotocin injection, the animals were given free access to water and food. […] In this test, the test-paper color changes to dark brown which indicates glycosuria.
The latter assays were carried out using Western blot analysis with monoclonal antibodies to MMP-8.

[4] = Diabetic adverse events in rats; assay type: in vivo, rat; conditions: 1-week oral treatment, n = 6
IL-1β = IL-1β (Rattus norvegicus (Rat), UniProt Q63264); experiment: Gingiva IL-1β by ELISA in diabetic rats; assay type: in vivo; conditions: lower oral dose (100 mg/kg), 3 weeks
Description: (§1) At the end of the treatment protocol, the rats were sacrificed, blood samples were collected, and whole skin (except over limbs) and gingiva were dissected (the skin, because of ample quantities of tissue were analyzed for each rat separately; the gingiva, because of the tiny amounts that could be harvested per rat, were pooled for each experimental group, as prescribed previously for tetracycline studies (30). In addition, the jaw bones were collected, defleshed, and bone loss around the teeth analyzed morphometrically as described previously (42, 43).

[5] = Alveolar bone loss in diabetic rats; assay type: in vivo, rat; conditions: very high oral dose (500 mg/kg), 3 weeks
Description: as §1
Alveolar bone loss (the signature pathologic event in inflammatory periodontal disease) was assessed in the defleshed jaws of the compound 1-treated (TX) and untreated rats. Briefly, little or no difference in bone loss was seen comparing the untreated non-diabetic and untreated diabetic rat jaws (enhanced bone loss has been observed in diabetic rats previously when the duration of the hyperglycemia was greater than the 3-week experiment described herein).

MMP-2 = MMP-2 (Rattus norvegicus (Rat), UniProt P33436); experiment: Skin MMP-2 by ELISA in diabetic rats; assay type: in vivo; conditions: both low and high doses
Description: as §1

[6] = test system: neonatal rat ventricular myocytes; experiment: Hydrogen peroxide induced LDH release; assay type: cell-based; conditions: H2O2 100 μM, compound 10 μM
Description: Neonatal rat ventricular myocytes, serum starved for 24 h, were treated with the inhibitors 1 h prior to the addition of 100 μM of hydrogen peroxide (Sigma). LDH release in the conditioned media was quantified using CytoTox-ONE Homogeneous Membrane Integrity Assay reagent (Promega) at the indicated time points.

[7] = test system: neonatal rat ventricular myocytes; experiment: Doxorubicin mediated caspase-3 activity; assay type: cell-based; conditions: doxorubicin 500 nM, 6 h and 24 h, compounds 10 μM
Description: Neonatal rat ventricular myocytes, serum starved for 24 h, were treated with the inhibitors 1 h prior to the addition of 500 nM of doxorubicin (Sigma). At the indicated time points cells were washed with ice-cold phosphate buffered saline and lysed using RIPA buffer (Pierce) containing protease and phosphatase inhibitors (Sigma). Caspase-3 activity in the cell lysates was measured by incubation with 7-amino-4-trifluoromethyl coumarin (Enzo).

[8] = test system: PC-3 human prostate cancer cells; experiment: MMP-9 in conditioned media of PC-3 cells (gelatin zymography, Western blot); assay type: cell-based; conditions: 10 μM and 20 μM, 48 hr
Description: Compound 1 was evaluated in a cell culture model of cancer. […] After the incubation, aliquots of the conditioned media were assayed for MMP-9 (gelatinase B) by either of two techniques, gelatin zymoyraphy (in the presence of 2 or 10 mMCa^++) and Western blot (both assays used purified MMP-9, 92 kDa gelatinase, as a standard).

[9] = Solubility in aqueous solutions; assay type: physicochemical
TNF-α = TNF-α production by LPS-stimulated human monocytes (ELISA); assay type: cell-based; conditions: 10 and 20 μM
Description: Briefly, human peripheral blood monocytes (HMs) were isolated from a leukocyte concentrate by density gradient centrifugation (Lymphoprep) and the isolated HMs cultured (2 h, 37° C.) to remove non-adherant cells. The adherent HMs were cultured for 18 h (1×10^6 cells/well, 24-well plates)±endotoxin (LPS)±different compounds dissolved in DMSO (the final concentration of DMSO in the RPMI serum-free culture media with Pen./Strep, antibiotics was no greater than 0.5%). After incubation, the proinflammatory cytokines, TNFα, IL-1β, MCP-1 and IL-6 were measured in the conditioned media by ELISA and cytotoxicity was assessed by measuring the absorbance (490 ran) of formazan produced by reduction of MTS. The HMs alone ±0.1-0.5% DMSO produced minimal levels of these pro-inflammatory cytokines. However, addition of 100 ng/ml or 10 μg/ml of LPS both dramatically stimulated cytokine production.

Sequence of MMP-9 (human leukocyte gelatinase) (P14780 94-707): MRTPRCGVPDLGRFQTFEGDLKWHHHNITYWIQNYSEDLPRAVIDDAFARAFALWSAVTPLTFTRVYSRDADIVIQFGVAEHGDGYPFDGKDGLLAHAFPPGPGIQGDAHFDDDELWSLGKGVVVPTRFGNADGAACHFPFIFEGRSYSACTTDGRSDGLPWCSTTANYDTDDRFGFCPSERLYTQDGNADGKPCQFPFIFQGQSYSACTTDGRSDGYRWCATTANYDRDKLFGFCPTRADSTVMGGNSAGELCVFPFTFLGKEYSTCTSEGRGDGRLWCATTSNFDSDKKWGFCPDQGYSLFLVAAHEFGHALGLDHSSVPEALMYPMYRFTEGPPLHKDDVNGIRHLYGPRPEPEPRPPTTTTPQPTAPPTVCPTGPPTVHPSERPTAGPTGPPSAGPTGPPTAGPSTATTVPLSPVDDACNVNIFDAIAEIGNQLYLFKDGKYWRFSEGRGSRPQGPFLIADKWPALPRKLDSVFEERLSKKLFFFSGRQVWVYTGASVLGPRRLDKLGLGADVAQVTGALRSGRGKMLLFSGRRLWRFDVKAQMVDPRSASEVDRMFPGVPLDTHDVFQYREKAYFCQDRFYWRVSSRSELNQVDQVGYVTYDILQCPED
Sequence of purified human PMN MMP-8 (P22894 101-467): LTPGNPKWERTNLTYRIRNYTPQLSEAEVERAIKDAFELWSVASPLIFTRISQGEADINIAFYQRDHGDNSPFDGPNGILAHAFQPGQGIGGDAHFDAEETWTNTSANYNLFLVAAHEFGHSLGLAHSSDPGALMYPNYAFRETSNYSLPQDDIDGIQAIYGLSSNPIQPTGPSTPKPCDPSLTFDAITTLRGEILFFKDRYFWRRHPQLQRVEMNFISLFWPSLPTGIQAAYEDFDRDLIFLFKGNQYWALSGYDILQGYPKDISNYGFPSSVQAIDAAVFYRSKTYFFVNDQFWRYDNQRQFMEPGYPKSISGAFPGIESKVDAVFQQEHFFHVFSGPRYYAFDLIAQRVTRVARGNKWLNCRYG

## c1cnc2c(c1)ccc1cccnc12 [1,10-phenanthroline, 1,10-O-phenanthroline]
Purified human PMN MMP-8; read-out: IC50 against purified hMMP-8
  IC50: 10 µM and 35 µM

## COC(=O)C(C(=O)/C=C/c1ccc(O)c(OC)c1)C(=O)/C=C/c1ccc(O)c(OC)c1 [Compound 1, 1,7-Bis(4-hydroxy-3-methoxyphenyl)-4-methoxycarbonylhepta-1E,6E-dien-3,5-dione]
Human monocytes; 2 uM
  Cytotoxicity Monocytes @ 5 h incubation: 2 uM- 0%
Human monocytes; 10 uM
  Cytotoxicity Monocytes @ 5 h incubation: 10 uM- 0%
[1]
  Reduction of MCP-1, TNFα and VEGF levels: potent in reducing
[2]
  IC50: 6 to 17 µM
[3]
  Effect on severity of hyperglycemia (serum glucose): no effect
[4]
  Description of AEs: Minor inflamed sclera
  Incidence of Adverse Events (AEs): 1/6
IL-1β
  Reduction of IL-1β in gingiva vs untreated diabetic: about 18%
[5]
  Reduction in alveolar bone loss vs untreated groups: less effective
MMP-2
  Reduction of elevated MMP-2 level in skin: 28%
[6]; 24 h
  Effect on LDH release: less dramatic effect
[7]
  Modulation of doxorubicin mediated caspase-3 activity: None of the MMP inhibitors, including compound 1, negatively modulate caspase-3 activity
[8]
  Production and/or activity of MMP-9: inhibited the production and/or activity of MMP-9
[9]
  Solubility: more soluble than the insoluble natural product curcumin

## COC(=O)C(C(=O)/C=C/c1ccc(O)cc1)C(=O)/C=C/c1ccc(O)cc1 [Compound 3, 1,7-Bis(4-hydroxyphenyl)-4-methoxycarbonylhepta-1E,6E-dien-3,5-dione]
Purified human PMN MMP-8; Example 7 experiment, 37° C., 1 mM Ca++
  IC50 collagenase (MMP-8) activity: more potent as a collagenase or MMP inhibitor than compound 1
[2]
  IC50: 6 to 17 µM
[9]
  Solubility: more soluble in aqueous solutions than compound 1

## COc1cc(/C=C/C(=O)CC(=O)/C=C/c2ccc(N(C)C)cc2)ccc1O [Compound 4]
[2]
  IC50: 6 to 17 µM

## COc1cc(/C=C/C(=O)CC(=O)/C=C/c2ccc(O)c(OC)c2)ccc1O [Curcumin, diferuloylmethane]
Human monocytes; 10 uM
  Cytotoxicity Monocytes @ 5 h incubation: 10 uM- 0%
Human monocytes; 10 uM, 18 h
  Cytotoxicity Monocytes @ 18 h incubation: 10 uM- 0%
Human monocytes; 50 and 100 μM, some precipitation in cell culture
  Cytotoxicity associated with TNFα inhibitory effect: significant cytotoxicity
TNF-α
  Effect on TNFα production by endotoxin-stimulated human monocytes: no effect
[9]
  Solubility: insoluble

## CNC(=O)[C@H](Cc1c[nH]c2ccccc12)NC(=O)[C@@H](CC(=O)NO)CC(C)C [GM-6001]
[6]
  Effect on LDH release: did not affect LDH release

## CCOCOC[C@H](C[C@H](C)C(=O)NO)NC(=O)c1ccc(Oc2ccccc2)cc1 [ONO-4817]
[6]
  Effect on LDH release: did not affect LDH release
